Test results published in patent US10495642B2, “Inhibitors of proteins specific for the secretome of a chondrocyte for use in the treatment of breast cancer metastasis” (ALBERT-LUDWIGS-UNIVERSITÄT FREIBURG, priority 2013, dated 2019).

Key:
[1] = biological target: T1, recombinant human CXCL5/ENA-78 (Homo sapiens, UniProt P42830); test: Phage display identification of CXCL5 binding peptides; details: region of CXCL5 of FIGS. 7 and 8
T1 sequence (P42830 37-114): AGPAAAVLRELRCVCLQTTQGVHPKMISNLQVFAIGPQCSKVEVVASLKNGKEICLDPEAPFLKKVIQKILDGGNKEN
Source text: Phage display: 12 amino acid binding peptides towards CXCL5 were identified using a commercial phage display system from […].

MDA-MB-231 cells = test: Transwell migration of MDA-MB-231 cells towards chondrocyte conditioned media; format: cell-based, human; details: chondrocyte conditioned media as chemoattractant
Method: Cell differentiation: Primary human monocytes, articular chondrocytes, and adipose tissue derived stromal cells were isolated from healthy donors and differentiated into osteoclasts (OC), articular chondrocytes (AC) and osteoblasts (OB) respectively. Cell lines: MDA-MB-231 (MDA), a metastatic, and MCF7A, an epithelial like breast cancer cell line, were used in this study.
Serum free conditioned media: After differentiation, cells were washed 2 times with PBS and incubated with DMEM for 24 hours. After 24 hours, conditioned media was harvested and passed through a 0.45 μm filter.
Migration: MDA-MB-231 cells were serum-starved for 24 hours before testing of the migration. Migration media was plated in the bottom of the well and a transwell insert (8 μm pores) was placed on top. 25.000 cells were seed on top of the filter. After 15 hours, the filters were washed and non-migrated cells were removed. Migrated cells were stained with H&E and counted under a microscope. Numbers were obtained as the average number of 5 random fields per filter.

[2] = tested on: MCF-7 and MDA-MB-231 as well as 4T1 cancer cell lines; details: addition of CXCL5, cited from earlier work
4T1 cells = details: cited from earlier work
[3] = tested on: human pancreatic cancer, malignant melanoma, papillary thyroid cancer, breast cancer, colon cancer, and prostate cancer cells; details: human cancer cells with high basal TLR3 and Wnt5a; cited from earlier work

H-Pro-Val-Trp-Ala-his-leu-Asn-Pro-Pro-Trp-Leu-Ala-NH2 [Peptide 1]
binding to the pocket region of CXCL5 [1]: bind to said region
migration of MDA-MB-231 cells in the presence of the chondrocyte secretome (MDA-MB-231 cells): reduces migration

CXCL5: small cytokine of the CXC chemokine family, epithelial-derived neutrophil-activating peptide 78
migration and invasiveness ([2]; MCF-7, MDA-MB-231 and 4T1 cancer cell lines): enhance the migration and invasiveness
cell proliferation ([2]; MCF-7 or MDA-MB-231 cancer cells): did not increase cell proliferation
tumor nodules in livers, lungs and intestines versus control group (4T1 cells; 4T1 mouse model): more numerous and larger
metastasis of 4T1 cells in mice (4T1 cells; CXCL5 0.5 mg/kg): increased the metastasis

Cn1c(-c2ccccc2)c[nH]c1=S [Peptide C10, 5-phenylmethimazole]
cell growth and migration [3]: suppression of cell growth and migration

H-IGKVDSNSVSHA-NH2 [Peptide 2]
binding to the pocket region of CXCL5 [1]: bind to said region
migration of MDA-MB-231 cells in the presence of the chondrocyte secretome (MDA-MB-231 cells): reduces migration
